# Measurements published in PMC7284374 (Pharmaceutics, 2020).
# Counter-ions that a name gives are not always drawn. Like-named read-outs stand apart in the source and are kept apart here.
# Experiments:
# [1] = 10 µM metformin
# Description: (§1) Hepatic and intestinal microsomes were prepared by the previously reported method as followings [17, 37, 38]: freshly excised livers were cut in pieces, washed extensively with ice-cold solution (KCl 0.15 M) to remove remaining blood and were homogenized with Tris-HCl buffer (pH 7.5) containing 0.15 M KCl + 50 mM Tris, 1 mM EDTA in a Potter-Elvehjem glass homogenizer for 30 s. The homogenate was centrifuged for 10 min at 10,000× g and 4 °C and then followed by ultracentrifugation of the remaining supernatant for 1 h at 100,000× g and 4 °C. Microsomal pellets were then re-suspended in the same buffer with a hand homogenizer and re-centrifuged for 1 h at 100,000× g and 4 °C. The supernatant was discarded, and the microsomal pellets were carefully overlaid with 0.15 mol KCl buffer and stored at −80 °C. Intestinal microsomes were prepared using freshly excised proximal and middle sections of the small intestine. […]
# (§2) The unweighted kinetic data from the hepatic and intestinal microsomes were fitted using a single-site Michaelis−Menten equation; V = Vmax × [S]/(Km + [S]), in which [S] was the substrate concentration. The intrinsic clearance (CLint) was calculated by dividing the Vmax by the Km.
# [2] = 10 µM metformin; remark: listed apart in the source
# Description: as §1, §2
# [3] = in vivo; conditions: rat
# [4] = in vivo; conditions: rat, plasma, iv, 30 mg/kg
# [5] = in vivo; conditions: rat, plasma, po, 30 mg/kg
# [6] = cited from earlier work
# [7] = Oral pharmacokinetics of verapamil and norverapamil with and without metformin in rats; conditions: for CL renal: plasma and urine, CLR; for half-life: Terminal half-life; for GI24 h: gastrointestinal tract at 24 h; for Ae0–24 h: urine up to 24 h
# [8] = Intravenous pharmacokinetics of verapamil and norverapamil with and without metformin in rats; conditions: for CL renal: plasma and urine, CLR; for half-life: Terminal half-life; for GI24 h: gastrointestinal tract at 24 h; for Ae0–24 h: urine up to 24 h
# [9] = rats, intravenous administration of both drugs together
# [10] = rats, oral administration of both drugs together
# [11] = rat, plasma, po, 20 mg/kg, rats, oral verapamil 20 mg/kg, with metformin 30 mg/kg
# [12] = rat, plasma, po, 20 mg/kg, rats, oral verapamil 20 mg/kg, without metformin
# [13] = rats, oral verapamil 20 mg/kg, with metformin 30 mg/kg
# [14] = rats, oral verapamil 20 mg/kg, without metformin
# [15] = rat, plasma, iv, 20 mg/kg, rats, iv verapamil 20 mg/kg, with metformin 30 mg/kg
# [16] = rat, plasma, iv, 20 mg/kg, rats, iv verapamil 20 mg/kg, without metformin
# [17] = rats, iv verapamil 20 mg/kg, with metformin 30 mg/kg
# [18] = rats, iv verapamil 20 mg/kg, without metformin
smiles,measurement,setting,value
"CN(C)C(=N)N=C(N)N [metformin, Metformin hydrochloride]",effect of metformin on verapamil metabolism,[1],did not affect verapamil metabolism
same,effect of metformin on verapamil metabolism,[2],did not affect verapamil metabolism
same,concentration at 0.5 h,[3],2910 ± 894 ng/mL
same,AUC,[4],26500 ng·h/mL
same,MRT,[4],0.357 h
same,Vd,[4],0.349 ± 0.128 L/kg
same,AUC,[5],7870 ng·h/mL
same,Cmax,[5],2000 ± 328 ng/mL
same,renal excretion of metformin (OCT2-mediated),[6],~ 70 % of the metformin dose
COc1ccc(CCNCCCC(C#N)(c2ccc(OC)c(OC)c2)C(C)C)cc1OC (stereo not drawn) [norverapamil],CL renal,"[7]; rat, po, 20 mg/kg, rats, oral verapamil 20 mg/kg, with metformin 30 mg/kg",0.562 ± 0.445 mL/min/kg
same,CL renal,"[7]; rat, po, 20 mg/kg, rats, oral verapamil 20 mg/kg, without metformin",0.336 ± 0.107 mL/min/kg
same,Tmax,"[7]; rat, plasma, po, 20 mg/kg",0.75 h
same,AUC,[7]; [11],898 ng·h/mL
same,AUC,[7]; [12],1140 ng·h/mL
same,Cmax,[7]; [11],273 ± 123 ng/mL
same,Cmax,[7]; [12],267 ± 141 ng/mL
same,half-life,[7]; [11],1.95 ± 0.742 h
same,half-life,[7]; [12],2.8 ± 1.22 h
same,GI24 h,[7]; [13],0.0782 ± 0.0514 % of dose
same,Tmax,"[7]; rats, oral verapamil 20 mg/kg, with metformin 30 mg/kg, median (range)",45 (15–105) min
same,Ae0–24 h,[7]; [13],0.113 ± 0.0522 % of dose
same,GI24 h,[7]; [14],0.0870 ± 0.0665 % of dose
same,Ae0–24 h,[7]; [14],0.104 ± 0.0567 % of dose
same,CL renal,"[8]; rat, iv, 20 mg/kg, rats, iv verapamil 20 mg/kg, with metformin 30 mg/kg",0.0626 ± 0.0535 mL/min/kg
same,CL renal,"[8]; rat, iv, 20 mg/kg, rats, iv verapamil 20 mg/kg, without metformin",0.109 ± 0.102 mL/min/kg
same,Tmax,"[8]; rat, plasma, iv, 20 mg/kg",1 h
same,AUC,[8]; [15],3320 ng·h/mL
same,AUC,[8]; [16],3130 ng·h/mL
same,Cmax,[8]; [15],1090 ± 308 ng/mL
same,Cmax,[8]; [16],1240 ± 386 ng/mL
same,half-life,[8]; [15],1.05 ± 0.253 h
same,half-life,[8]; [16],0.847 ± 0.17 h
same,GI24 h,[8]; [17],0.126 ± 0.0927 % of dose
same,Tmax,"[8]; rats, iv verapamil 20 mg/kg, with metformin 30 mg/kg, median (range)",60 (30−90) min
same,Ae0–24 h,[8]; [17],0.0585 ± 0.0453 % of dose
same,GI24 h,[8]; [18],0.146 ± 0.0841 % of dose
same,Ae0–24 h,[8]; [18],0.0872 ± 0.0691 % of dose
"COc1ccc(CCN(C)CCCC(C#N)(c2ccc(OC)c(OC)c2)C(C)C)cc1OC (stereo not drawn) [verapamil, Verapamil hydrochloride]",effect of verapamil on the metformin concentration in the liver,[9],did not cause any change
same,effect of verapamil on the metformin concentration in the liver,[10],did not cause any change
